Test results: article PMC6952366 (Scientific Reports, 2020)
Values joined by “and” are separate entries in the source; they are usually repeats but may differ in a detail not shown here. Equal entries are not always repeated. Where two headings read alike, the source gives them in different places.

Columns and labels:
[1] = pKa determination by acid titration; format: physicochemical; settings: acid titration in water, Gran plot, 4 replicates
Method: The pKa of each compound was measured by acid titration. […] This procedure was repeated 4 times for each compound.

[2] = Octanol-water partition coefficient (logD) at pH 7.4, modified shake flask method; format: physicochemical; settings: pH 7.4, 4 replicates
Method: The octanol-water partition coefficient (logD) at pH 7.4 was determined using a modified version of the shake flask method. Briefly, PBS (900 µL), 1-octanol (900 µL) and a 10 mg/mL aqueous solution of each compound (2 µL) were added to a 2 mL HPLC vial. The compounds were partitioned between the layers via vortexing and centrifuged at 1,000 g for 1 min to allow for phase separation. A portion (10 µL) was taken from each layer (autoinjector was set up to draw volume at two different heights) and analyzed by HPLC. The relative concentration in each phase was determined by integrating the area under each peak and comparing the ratio of the areas from the octanol and aqueous layers. A calibration curve was performed to ensure that the concentrations detected were within the linear range of the detector. This procedure was repeated 4 times for each compound.

Shaker K+ channel = biological target: T1, Shaker K+ channel (Drosophila melanogaster, UniProt P08510, DEL6-46); experiment: cell-based; format: cell-based, D. melanogaster; settings: for δ (fractional distance through the membrane electrical field): Woodhull fit of IC50 vs voltage curves
T1 construct: expressed in transfected cells; host or cells: Xenopus laevis oocytes injected with in vitro transcribed cRNA (cDNA clone from the Bezanilla laboratory)
Method: K^+ currents were measured in Xenopus oocytes expressing the commonly studied voltage-gated K^+ channel Shaker from D. melanogaster. In order to determine the relative blocking capacity, each drug was applied to the same oocyte at increasing concentrations ranging from 1 to 10,000 μM. Then, the relative current was determined as the ratio between the maximal amplitude of the K^+ current in the absence and in the presence of each drug. […] The Hill equation (Eq. 1) was fitted to the dose-response curves and used to calculate the IC50 for each drug at pH 7.4.
A sample of cDNA clone encoding for Shaker voltage-gated K^+ channel from D. melanogaster with inactivation removed[51] was generously provided by the laboratory of Prof. Francisco Bezanilla at The University of Chicago. The DNA was amplified, linearized with Not I enzyme (New England Biolabs, Inc., Ipswich, MA, USA) and transcribed in vitro using the T7 promoter mMESSAGE cRNA kit (Ambion, Austin, Tex., USA).
Shaker channel was heterologously expressed in Xenopus laevis oocytes. Only mature Xenopus laevis frogs (Aquanimals SA de CV, Queretaro, Mexico) were used as oocytes suppliers. A volume of 1−3 mL from the ovary lobes was extracted via survival surgery under anesthesia. All methods involving live animals were performed in accordance with relevant guidelines and regulations and with the approval of the Comité Institucional del Cuidado y Uso de Animales en el Laboratorio (CICUAL-CUCEI-UDG). Subsequently, oocytes were isolated with the treatment of collagenase type II (Worthington Biochemical Corp., NJ, USA) under mechanical agitation. After the isolation with collagenase, each oocyte was injected with 15–25 ng of RNA encoding for the Shaker ion channel and incubated for 8–12 h at 17 °C in a Standard Oocytes Saline (SOS) solution containing (in mM): 100 NaCl, 1 MgCl2, 10 HEPES, 2 KCl and 1.8 CaCl2 with 50 μg/mL gentamycin at pH 7.5.
All chemical compounds for this study were acquired from Sigma-Aldrich (Sigma-Aldrich Co., St. Louis, MO, USA) and Chem-Impex International (Chem-Impex International, Inc. Wood Dael, IL, USA) unless otherwise indicated. Electrophysiology measurements were conducted using the methodology of cut-open oocyte voltage clamp (COVC)[52]. For COVC procedures, the internal recording solution contained (in mM): 120 KOH, 2 EGTA, and 20 HEPES. The external recording solution was composed (in mM) by: 12 KOH, 2 Ca(OH)2, 105 NMDG (N-methyl-D-glucamine)-methylsufonate (MES), and 20 mM HEPES. For measurements carried out at pH of 6.8 and 7.4, the pH of both solutions was adjusted with MES. For measurements carried out at pH = 9.1, HEPES was replaced by 2-(cyclohexylamino)ethanesulfonic acid (CHES).
K^+ currents were recorded in the same oocyte, first in absence (IK) and then in presence of each drug (II). IK was elicited by depolarizing the oocyte membrane with a voltage protocol that consisted in steps of 50 ms from −100 to 50 mV in increments of 10 mV. […] The integrity and stability of each oocyte were continuously monitored throughout the experiment.
Ionic currents were amplified and digitized with the Oocyte Clamp Amplifier CA-1A (Dagan Corporation, Minneapolis, MN, USA) and the USB-1604-HS-2AO Multifunction Card (Measurement Computing, Norton, MA, USA), respectively, and controlled with the GpatchMC64 program (Department of Anesthesiology, UCLA, Los Angeles, CA, USA) via a PC. Data were sampled at 100 kHz and filtered at 10 kHz. All the experiments were performed at room temperature (21–23 °C).
Ion currents recordings were analyzed with Analysis (Department of Anesthesiology, UCLA, Los Angeles, CA, USA) and OriginPro 8 (OriginLab Corporation, Northampton, MA, USA.) programs.
Mean values of data ± standard deviation (s.d.) are given or plotted and the number of experiments is denoted by n. The 95% of confidence interval (IC95) is denoted as [Upper limit-Lower limit]; where Upper limit = 10^(logIC50+s.d) and Lower limit = 10^(logIC50−s.d) .

[3] = cited from earlier work
[4] = 1-octanol/PBS, pH 7.4, octanol/water (PBS), read-out: logD
[5] = IC50, 40 mV, pH 7.4, Hill equation fit
[6] = IC50 at V = 0 mV (Woodhull parameter), fit of IC50 vs voltage curves (10 to 50 mV) with Woodhull model, mean ± SD
[7] = IC50 increase with voltage (from lowest to highest voltage), over the voltage values studied, Fig. 4 shows 10 to 50 mV
[8] = 0 mV, pH 6.8, Hill fit, read-out: IC50
[9] = 0 mV, pH 7.4, Hill fit, read-out: IC50
[10] = 0 mV, pH 9.1, Hill fit, read-out: IC50
[11] = 40 mV, pH 7.4, Hill equation fit, read-out: IC50
[12] = fit of IC50 vs voltage curves (10 to 50 mV) with Woodhull model, mean ± SD, read-out: IC50 at V = 0 mV (Woodhull parameter)
[13] = over the voltage values studied, Fig. 4 shows 10 to 50 mV, read-out: IC50 increase with voltage (from lowest to highest voltage)

T1 sequence (P08510 other isoform, or with tags, fused parts or gaps DEL6-46): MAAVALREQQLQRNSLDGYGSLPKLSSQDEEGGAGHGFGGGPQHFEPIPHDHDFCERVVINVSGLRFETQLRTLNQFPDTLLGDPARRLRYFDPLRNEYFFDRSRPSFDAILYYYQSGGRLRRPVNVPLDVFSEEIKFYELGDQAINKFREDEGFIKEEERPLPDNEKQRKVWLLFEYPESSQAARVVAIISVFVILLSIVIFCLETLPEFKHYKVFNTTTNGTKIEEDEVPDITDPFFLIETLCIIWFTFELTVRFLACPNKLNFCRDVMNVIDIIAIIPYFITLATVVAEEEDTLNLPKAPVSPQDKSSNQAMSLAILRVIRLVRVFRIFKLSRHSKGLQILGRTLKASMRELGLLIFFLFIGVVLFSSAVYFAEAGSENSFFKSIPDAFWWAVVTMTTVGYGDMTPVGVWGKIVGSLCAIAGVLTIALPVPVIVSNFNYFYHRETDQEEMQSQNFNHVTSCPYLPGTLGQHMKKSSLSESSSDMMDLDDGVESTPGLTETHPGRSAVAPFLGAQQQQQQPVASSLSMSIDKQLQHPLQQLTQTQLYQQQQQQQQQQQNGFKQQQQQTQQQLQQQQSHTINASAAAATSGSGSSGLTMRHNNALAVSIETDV

Row | SMILES | pKa [1] | pKa ([1]; water, read-out: pKa) | logD ([2]; octanol/water (PBS)) | δ (fractional distance through the membrane electrical field) (Shaker K+ channel) | logD [2, 4] | IC50 (Shaker K+ channel; IC50, 0 mV, pH 6.8, Hill fit) [µM] | IC50 (Shaker K+ channel; IC50, 0 mV, pH 7.4, Hill fit) [µM] | IC50 (Shaker K+ channel; IC50, 0 mV, pH 9.1, Hill fit) [µM] | IC50 (Shaker K+ channel; [5]) [µM] | IC50 (Shaker K+ channel; [6]) [µM] | IC50 (Shaker K+ channel; [7]) [µM] | IC50 (Shaker K+ channel; [8]) [µM] | IC50 (Shaker K+ channel; [9]) [µM] | IC50 (Shaker K+ channel; [10]) [µM] | IC50 (Shaker K+ channel; [11]) [µM] | IC50 (Shaker K+ channel; [12]) [µM] | IC50 (Shaker K+ channel; [13]) [µM] | blocking of the channel (Shaker K+ channel; at 10 mM, pH 7.4, 40 mV) | potency relative to 4AP (Shaker K+ channel; pH 7.4, 40 mV) | pKa [3]
1 | Nc1ccncc1 [4AP, 4-aminopyridine, reference compound] | 9.58 ± 0.07 | > 9 | −1.48 and −1.478 ± 0.014 | 0.41 ± 0.08 | – | – | – | – | – | – | – | – | – | – | – | – | – | – | – | –
2 | Nc1ccncc1C(F)(F)F [3CF34AP, 3-trifluoromethyl-4-aminopyridine] | 7.17 ± 0.04 | < 8 | 1.484 ± 0.009 | 0.46 ± 0.10 | 0.91 | 249 | 690 | 2190 | 1060 | 516 ± 51 | 690 to 1150 | – | – | – | – | – | – | – | – | –
3 | COc1cnccc1N [3MeO4AP, 3-methoxy-4-aminopyridine] | 9.18 ± 0.02 | > 9 | – | 0.56 ± 0.02 | -0.76 ± 0.03 | – | – | – | – | – | – | 357 | 355 | 492 | 807 | 329 ± 17 | 310 to 992 | – | – | –
4 | Nc1ccnc(C(F)(F)F)c1 [2CF34AP, 2-trifluoromethyl-4-aminopyridine] | 7.0 ± 0.4 | < 8 | 0.906 ± 0.006 | – | 1.48 | – | – | – | – | – | – | 10400 | 11900 | 18200 | 12800 | – | – | ~ 50% | – | –
5 | Cc1cnccc1N [3Me4AP, 3-methyl-4-aminopyridine] | 9.82 ± 0.06 | > 9 | −1.23 and −1.232 ± 0.008 | 0.43 ± 0.10 | – | 66 | 39 | 15 | 40 | 21 ± 1 | 37 to 50 | – | – | – | – | – | – | – | – | –
6 | Nc1ccncc1F [3F4AP, 3-fluoro-4-aminopyridine, reference compound] | 7.65 ± 0.15 | < 8 | 0.414 ± 0.002 | 0.46 ± 0.10 | 0.41 | – | – | – | – | – | – | 82 | 160 | 185 | 244 | 122 ± 4 | 160 to 304 | – | comparable to 4AP | 7.6
